These are literature values, as cited in patent US20260248129A1, “SPRAYABLE SUBSTANCES FOR PHOTOSYNTHESIS ENHANCEMENT” (Sensei Ag Holdings, Inc., priority 2023, published 2026).

Molecules are shown by their SMILES. Values after ≈ are worked out from the molar mass of the structure shown. Like-named read-outs stand apart in the source and are kept apart here.

For data set [1] the following is noted: ethanol, methanol, hexane, ether, and a variety of other solvents.
Experiment in data set [2]: not given
This is another data set of the same source.

Take `c1ccc2cc3ccccc3cc2c1` [anthracene, Anthracene]: the “stability under light (in words)” value is recorded as “does eventually degrade under light”. The “solubility in organic solvents (in words)” value in data set [1] is “very soluble”. Further, the “solubility in water (in words)” value in data set [2] (water) was “slightly soluble”. Moreover, the water solubility in data set [2] (water at 25° C.) is on record as 0.044 mg/L (≈ 0.247 µM).
Regarding `O=c1ccc2ccccc2o1` [coumarin, Coumarin], the water solubility in data set [2] (water) is 0.17 mg/100 mL.
